Here are results for 26 compounds from patent publication US20230002324A1, “NAPHTHOQUINONE DERIVATIVES FOR TREATMENT OF OXIDATIVE STRESS DISORDERS” (PTC THERAPEUTICS, INC., priority 2019, published 2023).

Test [1] has as its system normal human fibroblasts (NHF, GM21811). Description: NHF GM21811 RSL3 challenge cell survival (rescue) assay. The class given is cell-based. To be noted: Fibroblast, NHF cells, RSL3 2 micromolar, 48 h, Cell Titer Glo, read-out: NHF GM21811 RSL3 Survival EC50. The text has this: (§1) In neuronal cells excess extracellular glutamate inhibits the cystine/glutamate antiporter leading to intracellular cysteine depletion, GSH depletion, reactive oxygen species (ROS) production and cell death, a phenomenon termed oxidative glutamate toxicity, oxytosis, or ferroptosis. […] Q7 cells (ST HDH Q7/7; immortalized mouse striatal cells) challenged with cystine-free media or the selective, irreversible GPX4 inhibitor, methyl (1S,3R)-2-(2-chloroacetyl)-1-(4-(methoxycarbonyl)phenyl)-2,3,4,9-tetrahydro-1H-pyrido[3,4-b]indole-3-carboxylate (hereafter referred to as RSL3), recapitulate this phenotype, as do normal human fibroblasts (NHF) challenged with RSL3. An initial screen was performed to identify compounds effective in rescuing Q7 and/or NHF cells from death resulting from cystine deprivation or RSL3 challenge. This method is further described in Yonezawa et al., J. Neurochem 67, 566-573 (1996), Li et al., J Neurosci., 23, 5816-5826 (2003), Yang and Stockwell, Chem Biol., 15: 234-45 (2008), and Yang et al., Cell 156, 317-331 (2014). See also Hinman A, Holst C R, Latham J C, et al. Vitamin E hydroquinone is an endogenous regulator of ferroptosis via redox control of 15-lipoxygenase. PLoS One. 2018; 13(8):e0201369. Published 2018 Aug. 15. doi:10.1371/journal.pone.0201369; and Kahn-Kirby A H, Amagata A, Maeder C I, et al. Targeting ferroptosis: A novel therapeutic strategy for the treatment of mitochondrial disease-related epilepsy. PLoS One. 2019; 14(3):e0214250. Published 2019 Mar. 28. doi:10.1371/journal.pone.0214250.
(§2) DMEM (Catalog no. 11995-040), DMEM without Cystine (Catalog no. 21013-024), DMEM without Glucose (Catalog A1443001), PBS (Phosphate buffered saline), Penicillin-streptomycin mix, L-Glutamine, Glucose, Phenol Red, and Pyruvate were purchased from ThermoFisher Scientific (Gibco). Fetal Bovine Serum was obtained from Mediatech, Inc., or Sigma Aldrich. Mouse striatum derived ST HDH Q7/7 (Q7) and normal human skin fibroblast (NHF, product number GM21811) cells were obtained from the Coriell Institute. Methionine and Vitamin K2 were purchased from Sigma Aldrich. RSL3 was synthesized as previously described (see e.g. US Patent Publication US2010/0081654). Cell Titer Glo 2.0 was purchased from Promega. Q7 cell culture medium (Q7 growth medium) was made by combining 50 mL Fetal Bovine Serum, 100 U/mL penicillin, and 100 microgram/mL streptomycin; DMEM was added to make the volume up to 500 mL. Assay medium for the Cystine Deprivation assay was prepared by combining 50 mL Fetal Bovine Serum, 100 U/mL penicillin, 100 microgram/mL streptomycin, 4 mM L-Glutamine, 1 mM Pyruvate and 30 mg/L Methionine; DMEM without Cystine was added to make the volume up to 500 mL. NHF cell culture medium (NHF growth medium) was made by combining 50 mL Fetal Bovine Serum, 100 U/mL penicillin, 100 microgram/mL streptomycin, 2.8 mL 20% Glucose solution (final concentration 6 mM), L-glutamine (final concentration 2 mM), phenol red (final concentration 15 mg/L); DMEM without Glucose was added to make the volume up to 500 mL. Assay medium for the RSL3 challenge assay was identical to Growth medium. While not in use during the course of the experiments, these solutions were stored at 4° C. The cells were grown in 150-cm^2 tissue culture-treated flasks. Every third or fourth day, the cells were sub-cultured by trypsinization and re-seeded at a cell density of 600,000 (Q7) or 300,000 (NHF) cells per flask.
(§3) Q7 or NHF cells were cultured routinely as described herein. For 384-well cell survival assays, cells were seeded in clear bottom, black wall 384-well tissue culture-treated polystyrene plates by re-suspending a cell suspension at a density of 50,000 cells/mL in growth medium, then dispensing 60 microliters of cell suspension per well using either an electronic multichannel pipette or a Multidrop™ Combi Reagent Dispenser (ThermoFisher Scientific), corresponding to 3,000 cells/well. […]
(Cellular ATP, detected with luciferase, serves as a proxy for viable cell number.)

In test [2] the test system is Q7 cells (ST HDH Q7/7; immortalized mouse striatal cells). Description: Q7 Cystine Deprivation cell survival (rescue) assay. The class given is cell-based. The following applies: Q7 cells, cystine-free medium, 18 h, Cell Titer Glo, 50% relative viability vs Vitamin K2 (1 micromolar), read-out: Q7 Cystine Deprivation Survival EC50.
Source text: as §1, §2, §3

A word on the EC50: it is the concentration that produces a half-maximal response.

On to `CCC1=C(Cc2ccc(C(F)(F)F)cn2)C(=O)c2cccc(F)c2C1=O` [Example 61, 3-ethyl-5-fluoro-2-((5-(trifluoromethyl)pyridin-2-yl)methyl)naphthalene-1,4-dione], for which, in test [1], the EC50 was under 50 nM.
On the same count and under the same terms, the figure for `CCC1=C(Cc2ccc(C(C)(F)F)cn2)C(=O)c2c(F)ccc(F)c2C1=O` [Example 62, 2-((5-(1,1-difluoroethyl)pyridin-2-yl)methyl)-3-ethyl-5,8-difluoronaphthalene-1,4-dione] is under 50 nM.
The same measure, in the same setting: the figure for `CCC1=C(Cc2ccc(C(F)(F)F)cn2)C(=O)c2c(ccc(F)c2F)C1=O` [Example 63, 2-ethyl-5,6-difluoro-3-((5-(trifluoromethyl)pyridin-2-yl)methyl)naphthalene-1,4-dione] is under 50 nM; for `CCC1=C(Cc2ncc(C(F)(F)F)cc2F)C(=O)c2c(F)cc(F)cc2C1=O` [Example 64, 2-ethyl-5,7-difluoro-3-((3-fluoro-5-(trifluoromethyl)pyridin-2-yl)methyl)naphthalene-1,4-dione] it is under 50 nM.
Same read-out and setting: to `O=C1C(C2CC2)=C(Cc2ccc(C(F)(F)F)cn2)C(=O)c2c(F)cc(F)cc21` [Example 65, 2-cyclopropyl-5,7-difluoro-3-((5-(trifluoromethyl)pyridin-2-yl)methyl)naphthalene-1,4-dione] belongs under 50 nM.
On to `CCC1=C(Cc2cc(C(F)(F)F)c(C)cn2)C(=O)c2c(F)ccc(F)c2C1=O` [Example 66, 2-ethyl-5,8-difluoro-3-((5-methyl-4-(trifluoromethyl)pyridin-2-yl)methyl)naphthalene-1,4-dione], for which, in test [1], the concentration giving a half-maximal response (EC50) was under 50 nM.
Take `CCC1=C(Cc2ccc(C(F)F)cn2)C(=O)c2c(F)cc(F)cc2C1=O` [Example 67, 3-((5-(difluoromethyl)pyridin-2-yl)methyl)-2-ethyl-5,7-difluoronaphthalene-1,4-dione]: in test [1], the concentration for a half-maximal effect (EC50) is under 50 nM.
As to `CCC1=C(Cc2cccc(OC)n2)C(=O)c2c(F)ccc(F)c2C1=O` [Example 89, 2-ethyl-5,8-difluoro-3-((6-methoxypyridin-2-yl)methyl)naphthalene-1,4-dione], the concentration giving a half-maximal response (EC50) in test [1] was under 50 nM.
`O=C1C(Cc2ccc(C(F)(F)F)cn2)=C(CC2COC2)C(=O)c2c(F)ccc(F)c21` [Example 90, 5,8-difluoro-2-(oxetan-3-ylmethyl)-3-((5-(trifluoromethyl)pyridin-2-yl)methyl)naphthalene-1,4-dione]: the EC50 in test [1] is under 50 nM.
On the same count and under the same terms, to `O=C1C(Cc2ccc(C(F)(F)F)cn2)=C(C2CC2)C(=O)c2c(F)ccc(F)c21` [Example 91, 2-cyclopropyl-5,8-difluoro-3-((5-(trifluoromethyl)pyridin-2-yl)methyl)naphthalene-1,4-dione] belongs under 50 nM.
The same measure, in the same setting: the figure for `CCC1=C(Cc2ccc(F)cn2)C(=O)c2c(F)cc(F)cc2C1=O` [Example 92, 2-ethyl-5,7-difluoro-3-((5-fluoropyridin-2-yl)methyl)naphthalene-1,4-dione] is under 50 nM; for `CCC1=C(Cc2ccc(C(F)(F)F)c(C#N)n2)C(=O)c2c(F)cc(F)cc2C1=O` [Example 93, 6-((3-ethyl-6,8-difluoro-1,4-dioxo-1,4-dihydronaphthalen-2-yl)methyl)-3-(trifluoromethyl)picolinonitrile] it is under 50 nM.
The same measure, in the same setting: to `CCC1=C(Cc2ncc(C(F)(F)F)cc2Cl)C(=O)c2c(F)cc(F)cc2C1=O` [Example 94, 3-((3-chloro-5-(trifluoromethyl)pyridin-2-yl)methyl)-2-ethyl-5,7-difluoronaphthalene-1,4-dione] belongs under 50 nM.
`N#Cc1nc(CC2=C(C3CC3)C(=O)c3cc(F)cc(F)c3C2=O)ccc1C(F)(F)F` [Example 95, 6-((3-cyclopropyl-6,8-difluoro-1,4-dioxo-1,4-dihydronaphthalen-2-yl)methyl)-3-(trifluoromethyl)picolinonitrile]: the EC50 in test [1] was under 50 nM.
Still for that read-out and setting: to `N#Cc1nc(CC2=C(C3CC3)C(=O)c3cc(F)ccc3C2=O)ccc1C(F)(F)F` [Example 96, 6-((3-cyclopropyl-6-fluoro-1,4-dioxo-1,4-dihydronaphthalen-2-yl)methyl)-3-(trifluoromethyl)picolinonitrile] belongs under 50 nM; to `CCC1=C(Cc2ccc(C)c(OC)n2)C(=O)c2c(F)ccc(F)c2C1=O` [Example 97, 2-ethyl-5,8-difluoro-3-((6-methoxy-5-methylpyridin-2-yl)methyl)naphthalene-1,4-dione], under 50 nM.
Regarding `CCCC1=C(Cc2ccc(C)cn2)C(=O)c2ccccc2C1=O` [Example 115, 2-((5-methylpyridin-2-yl)methyl)-3-propylnaphthalene-1,4-dione], in test [2], the concentration for a half-maximal effect (EC50) is under 50 nM.
For the compound `CCCC1=C(Cc2ncc(F)cc2F)C(=O)c2ccccc2C1=O` [Example 117, 2-((3,5-difluoropyridin-2-yl)methyl)-3-propylnaphthalene-1,4-dione], the EC50 in test [2] was under 50 nM.
Still for that read-out and setting: the figure for `CCCC1=C(Cc2cc(C(F)(F)F)c(F)cn2)C(=O)c2ccccc2C1=O` [Example 119, 2-((5-fluoro-4-(trifluoromethyl)pyridin-2-yl)methyl)-3-propylnaphthalene-1,4-dione] is under 50 nM; for `O=C1C(CCC2COC2)=C(Cc2ccc(F)cn2)C(=O)c2ccccc21` [Example 121, 2-((5-fluoropyridin-2-yl)methyl)-3-(2-(oxetan-3-yl)ethyl)naphthalene-1,4-dione] it is under 50 nM; for `COC(C1=C(C)C(=O)c2ccccc2C1=O)c1ccc(C(F)(F)F)cn1` (centres unmarked) [Example 124, 2-(methoxy(5-(trifluoromethyl)pyridin-2-yl)methyl)-3-methylnaphthalene-1,4-dione] it is under 50 nM.
The same measure, in the same setting: the figure for `O=C1C(O)=C(Cc2ccc(C(F)(F)F)cn2)C(=O)c2ccccc21` [Example 125, 2-hydroxy-3-((5-(trifluoromethyl)pyridin-2-yl)methyl)naphthalene-1,4-dione] is over 1000 nM.
Regarding `[2H]C([2H])([2H])C1=C(Cc2ccc(C(F)(F)F)c(C(N)=O)n2)C(=O)c2c(F)ccc(F)c2C1=O` [Example 126, 6-((5,8-difluoro-3-(methyl-d3)-1,4-dioxo-1,4-dihydronaphthalen-2-yl)methyl)-3-(trifluoromethyl)picolinamide], in test [1], the concentration giving a half-maximal response (EC50) was under 50 nM.
In the case of `[2H]C([2H])([2H])C1=C(Cc2ccc(C(F)(F)F)c(C(=O)O)n2)C(=O)c2c(F)ccc(F)c2C1=O` [Example 127, 6-((5,8-difluoro-3-(methyl-d3)-1,4-dioxo-1,4-dihydronaphthalen-2-yl)methyl)-3-(trifluoromethyl)picolinic acid], in test [1], the 50% effective concentration (EC50) was 50 to 250 nM.
Still for that read-out and setting: the figure for `CCC1=C(Cc2ccc(F)c(C#N)n2)C(=O)c2c(F)ccc(F)c2C1=O` [Example 132, 6-((3-ethyl-5,8-difluoro-1,4-dioxo-1,4-dihydronaphthalen-2-yl)methyl)-3-fluoropicolinonitrile] is under 50 nM; for `CCC1=C(Cc2ccc(CC(F)(F)F)cn2)C(=O)c2c(F)ccc(F)c2C1=O` [Example 133, 2-ethyl-5,8-difluoro-3-((5-(2,2,2-trifluoroethyl)pyridin-2-yl)methyl)naphthalene-1,4-dione] it is under 50 nM.
